Data: patent US8940730B2, “Methods and compositions of treating a Flaviviridae family viral infection” (The Board of Trustees of the Leland Stanford Junior …, priority 2007, dated 2015)
Like-named read-outs stand apart in the source and are kept apart here.

Legend:
HCV RNA replication = assay: Luciferase assay of HCV RNA replication (Table 3); settings: Hepatitis C virus, read-out: Residual Luciferase activity
Huh7 cell line = assay: MTT assay for HCV replicon reporter cell lines (cell toxicity); assay type: cell-based; settings: Homo sapiens
HCV 1b RNA replicon = assay: Luciferase assay for HCV genotype 1b replicon reporter cell lines
[1] = Huh-7, read-out: Cell Viability EC50
[2] = Hepatitis C virus, Huh-7, 48 h, read-out: 1b EC50, 1b replicon, Huh7, 48 hours, top concentration 25 μM
[3] = Huh-7, cell toxicity, MTT, top concentration 25 μM, read-out: Cell Viability EC50

Structure (SMILES) | activity at 5 µM (HCV RNA replication) | activity at 10 µM (HCV RNA replication) | EC50 (HCV 1b RNA replicon; [2]) | EC50 (Huh7 cell line; [3]) | also measured
O=[N+]([O-])c1cc2cn(Cc3ccc(Cl)cc3)nc2cc1Cl [Compound 209] | > 80% | > 80% | – | – | –
Clc1ccc(Cn2nc(OCCCN3CC4CC3CO4)c3ccccc32)cc1 (stereo not drawn) [EBP528] | – | – | 7.9 µM | – | EC50 (Huh7 cell line; [1]): 8.4 µM
Clc1ccc(Cn2nc(OCCCCN3CCCC3)c3ccccc32)cc1 [EBP548] | – | – | 3.2 µM | > 25 µM | –
Clc1ccc(Cn2nc(OCCCN3CCC[C@H]3CN3CCCC3)c3cc(Cl)ccc32)cc1 [EBP649] | – | – | 5.6 µM | > 25 µM | –
Cc1ccc2c(c1)c(OCCN(C)C)nn2Cc1ccccc1 [Compound 197] | > 80% | 20 to 54% | – | – | –
C[C@H]1CCCN1CCCOc1nn(Cc2ccc(Cl)cc2)c2ccc(-c3cccnc3)cc12 [EBP897] | – | – | 7.2 µM | > 25 µM | –
C[C@@H]1CCCN1CCCOc1nn(Cc2ccc(Cl)cc2)c2ccc(Cl)cc12 [EBP645] | – | – | 8 µM | > 25 µM | –
C[C@H]1CCCN1CCCOc1nn(Cc2ccc(Cl)cc2)c2ccc(N(C)c3ccccc3)cc12 [EBP925] | – | – | 5.7 µM | > 25 µM | –
Clc1ccc(Cn2ncc3cc(Br)ccc32)cc1 [Compound 205] | > 80% | 55 to 80% | – | – | –
C[C@H]1CCCN1CCCOc1nn(Cc2ccc(Cl)cc2)c2ccc(N(C)Cc3ccccc3)cc12 [EBP924] | – | – | 5.7 µM | > 25 µM | –
COC[C@H]1CCCN1CCCOc1nn(Cc2ccc(Cl)cc2)c2ccc(N(C)c3ccccc3)cc12 [EBP522] | – | – | 6 µM | > 25 µM | –
Cc1cc2c(cnn2Cc2ccc(Cl)cc2)cc1[N+](=O)[O-] [Compound 204] | 55 to 80% | 20 to 54% | – | – | –
c1ccc(Cn2nc(OCCCN3CCCCC3)c3ccccc32)cc1 [Compound 198] | 20 to 54% | < 20% | – | – | –
Cc1cc2nn(Cc3ccc(Cl)cc3)cc2cc1Cl [Compound 206] | > 80% | 55 to 80% | – | – | –
C[C@H]1CCCN1CCCOc1nn(Cc2ccc(Cl)cc2)c2ccc(N3CCCCCC3)cc12 [EBP918] | – | – | 8.2 µM | 11 µM | –
Cc1cc2c(cnn2Cc2ccc(Cl)cc2)cc1Cl [Compound 200] | > 80% | 55 to 80% | – | – | –
O[C@@H]1CN(CCCOc2nn(Cc3ccc(Cl)cc3)c3ccccc23)C[C@@H]1O [EBP514] | – | – | 5.1 µM | > 25 µM | –
Clc1ccc(Cn2cc3cc(Br)ccc3n2)cc1 [Compound 211] | > 80% | 55 to 80% | – | – | –
Cl.c1ccc(Cn2nc(OCCN3CCCC3)c3ccccc32)cc1 [Compound 194] | > 80% | 55 to 80% | – | – | –
c1ccc(Cn2ncc3ccccc32)cc1 [Compound 185] | > 80% | > 80% | – | – | –

Structure (SMILES) | activity at 5 µM (HCV RNA replication) | activity at 10 µM (HCV RNA replication) | EC50 (HCV 1b RNA replicon; [2]) | EC50 (Huh7 cell line; [3]) | also measured
Cc1ccc2c(c1)c(OCCCN1CCCCC1)nn2Cc1ccccc1 [Compound 199] | 20 to 54% | < 20% | – | – | –
Cc1cc2nn(Cc3ccc(Cl)cc3)cc2cc1Br [Compound 208] | 55 to 80% | 20 to 54% | – | – | –
CC(=O)Nc1ccc(-c2ccc3c(c2)c(OCCCN2CCC[C@@H]2C)nn3Cc2ccc(Cl)cc2)cn1 [EBP900] | – | – | 5.6 µM | > 25 µM | –
COc1ccc(-c2ccc3c(c2)c(OCCCN2CCC[C@@H]2C)nn3Cc2ccc(Cl)cc2)cn1 [EBP902] | – | – | 8.3 µM | > 25 µM | –
Nc1ccc2c(c1)c(OCCCN1CCCC1)nn2Cc1ccc(Cl)cc1 [EBP531] | – | – | 3.9 µM | > 25 µM | –
Clc1ccc(Cn2nc(OCCCN3CC=CC3)c3ccccc32)cc1 [EBP519] | – | – | 18 µM | – | EC50 (Huh7 cell line; [1]): > 25 µM
Cc1cc2cnn(Cc3ccc(Cl)cc3)c2cc1Br [Compound 201] | > 80% | 55 to 80% | – | – | –
Brc1ccc(Cn2ncc3ccccc32)cc1 [Compound 186] | > 80% | > 80% | – | – | –
Cc1ccncc1-c1ccc2c(c1)c(OCCCN1CCC[C@@H]1C)nn2Cc1ccc(Cl)cc1 [EBP901] | – | – | 5.5 µM | > 25 µM | –
FC(F)(F)c1ccc2cn(Cc3ccc(Cl)cc3)nc2c1 [Compound 212] | 55 to 80% | 20 to 54% | – | – | –
O[C@@H]1CCN(CCCOc2nn(Cc3ccc(Cl)cc3)c3ccc(Cl)cc23)C1 [EBP644] | – | – | 7.5 µM | > 25 µM | –
Cc1ccc2c(c1)c(OCCN1CCCC1)nn2Cc1ccccc1 [Compound 196] | 55 to 80% | 20 to 54% | – | – | –
Cc1cc2nn(Cc3ccc(Cl)cc3)cc2cc1[N+](=O)[O-] [Compound 210] | 20 to 54% | 20 to 54% | – | – | –
C[C@H]1CCCN1CCCOc1nn(Cc2ccc(Cl)cc2)c2ccc(NC3CCCCC3)cc12 [EBP917] | – | – | 8 µM | > 25 µM | –
OC[C@@H]1CCCN1CCCOc1nn(Cc2ccc(Cl)cc2)c2ccc(Cl)cc12 [EBP647] | – | – | 7.6 µM | > 25 µM | –
Cc1ccc2c(c1)c(OCCCN(C)C)nn2Cc1ccccc1 [Compound 187] | 55 to 80% | 20 to 54% | – | – | –
Cc1ccc2c(c1)c(OCCCN1CCCC1)nn2Cc1ccccc1 [Compound 193] | 20 to 54% | < 20% | – | – | –
C[C@H]1CCCN1CCCOc1nn(Cc2ccc(Cl)cc2)c2ccc(-c3ccoc3)cc12 [EBP864] | – | – | 6.4 µM | > 25 µM | –
CN(C)CCOc1nn(Cc2ccccc2)c2ccccc12 [Compound 195] | > 80% | > 80% | – | – | –
Cl.c1ccc(Cn2nc(OCCCN3CCCC3)c3ccccc32)cc1 [Compound 192] | 55 to 80% | 20 to 54% | – | – | –

Structure (SMILES) | activity at 5 µM (HCV RNA replication) | activity at 10 µM (HCV RNA replication) | EC50 (HCV 1b RNA replicon; [2]) | EC50 (Huh7 cell line; [3]) | also measured
C[C@H]1CCCN1CCCOc1nn(Cc2ccc(Cl)cc2)c2ccc(-c3ccc(N4CCOCC4)nc3)cc12 [EBP899] | – | – | 2.2 µM | > 25 µM | –
Cc1cc2cn(Cc3ccc(Cl)cc3)nc2cc1Br [Compound 207] | > 80% | 55 to 80% | – | – | –
Cc1ccc2c(c1)c(OCCN1CCCCC1)nn2Cc1ccccc1.Cl [Compound 191] | 55 to 80% | < 20% | – | – | –
C[C@H]1CCCN1CCCOc1nn(Cc2ccc(Cl)cc2)c2ccc(-c3ccncc3)cc12 [EBP904] | – | – | 8.2 µM | > 25 µM | –
C[C@H]1CCCN1CCCOc1nn(Cc2ccc(Cl)cc2)c2ccc(Br)cc12 [EBP743] | – | – | 8.1 µM | – | –
O=[N+]([O-])c1cc2cnn(Cc3ccc(Cl)cc3)c2cc1Cl [Compound 203] | > 80% | 20 to 54% | – | – | –
Clc1ccc(Cn2nc(OCC3CCCNC3)c3cc(Cl)ccc32)cc1 (stereo not drawn) [EBP590] | – | – | 7.3 µM | 11 µM | –
Cc1cc2c(cnn2Cc2ccc(Cl)cc2)cc1Br [Compound 202] | > 80% | > 80% | – | – | –
C[C@H]1CCCN1CCCOc1nn(Cc2ccc(Cl)cc2)c2ccc(-c3cnc(N)nc3)cc12 [EBP903] | – | – | 6.5 µM | > 25 µM | –
COc1cncc(-c2ccc3c(c2)c(OCCCN2CCC[C@@H]2C)nn3Cc2ccc(Cl)cc2)c1 [EBP898] | – | – | 5.3 µM | > 25 µM | –
COCC1CCN(CCCOc2nn(Cc3ccc(Cl)cc3)c3ccccc23)CC1 [EBP530] | – | – | 7.9 µM | > 25 µM | –
CN(C)CCCOc1nn(Cc2ccccc2)c2ccccc12 [Compound 184] | > 80% | 20 to 54% | – | – | –
CS(=O)(=O)Nc1ccc2c(c1)c(OCCCN1CCCC1)nn2Cc1ccc(Cl)cc1 [EBP532] | – | – | 8.5 µM | > 25 µM | –
C[C@H]1CCCN1CCCOc1nn(Cc2ccc(Cl)cc2)c2ccc(-c3cccnc3)cc12 [EBP846] | – | – | – | – | EC50 (HCV 1b RNA replicon; read-out: 1b EC50, 1b replicon, Huh7, 48 hours, top concentration 25 μM): 8.2 µM
Oc1nn(Cc2ccccc2)c2ccccc12 [Compound 189] | > 80% | > 80% | – | – | –
C[C@H]1CCCN1CCCOc1nn(Cc2ccc(Cl)cc2)c2ccc(N3CCCCC3)cc12 [EBP865] | – | – | 8.2 µM | – | –
Cl.c1ccc(Cn2nc(OCCN3CCCCC3)c3ccccc32)cc1 [Compound 190] | > 80% | 55 to 80% | – | – | –
C[C@H]1CCCN1CCCOc1nn(Cc2ccc(Cl)cc2)c2ccc(Cl)cc12 [EBP646] | – | – | 6.6 µM | > 25 µM | –
Cc1ccc2c(c1)c(O)nn2Cc1ccccc1 [Compound 188] | > 80% | 20 to 54% | – | – | –
OCC1CCN(CCCOc2nn(Cc3ccc(Cl)cc3)c3ccccc23)CC1 [EBP502] | – | – | 4.2 µM | > 25 µM | –
